Test results published in patent EP0025288A1, “Derivatives of monic acid, processes for their preparation, compositions containing them and their preparation” (priority 1979, dated 1981).
Values after ≈ are worked out from the molar mass of the structure shown.

Experiments:
S typhimurium S18 = experiment: MIC, veterinary bacteria; type: cell-based; conditions: veterinary bacteria (Table 2), read-out: MIC
Staph aureus Oxford = experiment: MIC, veterinary bacteria; type: cell-based; conditions: Staphylococcus aureus, veterinary bacteria (Table 2), read-out: MIC
Strep uberis SPU1 = experiment: MIC, veterinary bacteria; type: cell-based; conditions: veterinary bacteria (Table 2), read-out: MIC
[1] = system: M. hyosynoviae ATCC 25591; experiment: MIC, anti-mycoplasmal, Friis broth solidified with 0.9% agarose; type: cell-based; conditions: 144 h, inoculum 10^3 to 10^5 C.F.U., 6 days incubation at 37°C, read-out: in vitro MIC
[2] = Mean serum concentration in neonatal piglets after intramuscular or oral administration; type: in vivo; conditions: pig, 50 mg/kg; for concentration at 1 h: 60'
Description: e) Mean serum concentration in neonatal piglets of Examples 4 and 5 after intramuscular or oral administration at 50 mg/kg
Blood levels were assessed in neonatal piglets (2 to 4 animals per group and man bodyweights about 2 kg). The dose was 50 mg/kg (dose solution = 25 mg/ml in 25% ethanol). Doses were given by intramuscular injection and orally by stomach tube. Piglets were bled at intervals up to 8 and at 24 hours, and serum assayed microbiologically (B. subtilis ATCC 6633).

**Q.** With `CC(=CC(=O)OCCCC(=O)c1ccccc1)CC1OCC(CC2OC2C(C)C(C)O)C(O)C1O` (stereo not drawn) [Example 5, 4-Phenylbutan-4-onyl monate A] as the molecule, how does the MIC (S typhimurium S18) read?
**A.** 80 µg/mL (≈ 163 µM)

**Q.** And the MIC (Staph aureus Oxford)?
**A.** 0.156 µg/mL (≈ 0.318 µM)

**Q.** And the MIC (Strep uberis SPU1)?
**A.** 0.07 µg/mL (≈ 0.143 µM)

**Q.** And the MIC [1]?
**A.** 0.05 µg/mL (≈ 0.102 µM)

**Q.** What about the concentration at 10 min ([2]; im) of the same molecule?
**A.** 1900 ng/mL

**Q.** And the concentration at 20 min ([2]; im)?
**A.** 2300 ng/mL

**Q.** What about the concentration at 40 min ([2]; im) of the same molecule?
**A.** 1500 ng/mL

**Q.** What about the concentration at 1 h ([2]; im) of the same molecule?
**A.** 1200 ng/mL

**Q.** And the concentration at 2 h ([2]; im)?
**A.** 570 ng/mL

**Q.** What about the concentration at 3 h ([2]; im) of the same molecule?
**A.** 380 ng/mL

**Q.** What about the concentration at 4 h ([2]; im) of the same molecule?
**A.** 330 ng/mL

**Q.** And the concentration at 6 h ([2]; im)?
**A.** 310 ng/mL

**Q.** And the concentration at 8 h ([2]; im)?
**A.** 180 ng/mL

**Q.** And the concentration at 24 h ([2]; im)?
**A.** < 200 ng/mL

**Q.** What about the concentration at 10 min ([2]; po) of the same molecule?
**A.** 1200 ng/mL

**Q.** What about the concentration at 20 min ([2]; po) of the same molecule?
**A.** 1200 ng/mL

**Q.** And the concentration at 40 min ([2]; po)?
**A.** 1200 ng/mL

**Q.** And the concentration at 1 h ([2]; po)?
**A.** 860 ng/mL

**Q.** What about the concentration at 2 h ([2]; po) of the same molecule?
**A.** 230 ng/mL

**Q.** What about the concentration at 3 h ([2]; po) of the same molecule?
**A.** 160 ng/mL

**Q.** What about the concentration at 4 h ([2]; po) of the same molecule?
**A.** 80 ng/mL

**Q.** And the concentration at 6 h ([2]; po)?
**A.** 50 ng/mL

**Q.** And the concentration at 8 h ([2]; po)?
**A.** 30 ng/mL

**Q.** What about the concentration at 24 h ([2]; po) of the same molecule?
**A.** < 200 ng/mL
